In patent publication US4173650A, “Cis-2-benzoyl-3-hydroxy-2-alkenonitriles as anti-inflammatory agents” (American Cyanamid Company, priority 1978, dated 1979):
Where two headings read alike, the source gives them in different places.

Tests used:
[1] = test system: Adjuvant Induced Arthritis; assay: Adjuvant-induced arthritis in the rat; format: in vivo, rat (Royal Hart, Wistar strain); conditions: for inhibition in vivo at 50 mg/kg: oral 50 mg./kg.; for inhibition in vivo at 25 mg/kg: oral 25 mg./kg.
Procedure: Groups of three Royal Hart, Wistar strain rats weighing 200±10 g. each were injected intradermally in the right hind paw with Freund's adjuvant (dried human tubercle bacilli in a mineral oil vehicle) at a dose of 2 mg./kg. of body weight. The test compounds were administered orally in a 1.5% starch vehicle at various doses once daily on days 0 to 13 post challenge. Control rats were treated in a similar manner, but given only starch vehicle. On the 14th and 21st day post challenge the diameter of the injected paw was measured by micrometer caliper. The volume of inflamed paws were estimated from these measurements and the effects of each compound are expressed as percent inhibition of swelling as compared to controls. Table II records the results of these tests conducted with representative compounds of this invention and known anti-inflammatory agents. The active compounds of this invention suppress the progression of the arthritis and associated joint deterioration.
Adjuvant-induced experimental polyarthritis is a specific systemic disease of the rat which shares interesting similarities with rheumatoid arthritis. Specifically the histology of the two diseases bears a remarkable resemblence as shown by C. M. Pearson et al., Am. J. Path. 42, 73 (1963). E. M. Glenn, Am. J. Vet. Res. 27, (116), 339 (1966) has classified adjuvant-induced polyarthritis as a crippling and permanent deformity resulting from diffuse connective tissue involvement areound certain susceptible joints in the rat. Zahiri et al, Can. Med. Ass. J., 101, 269 (1969) have shown that the fusiform swelling of the distal joints is associated with edema, congestion and synovitis including pannus formation, all of which precede the ultimate destruction of bone and cartilage. Furthermore, Zahiri et al., indicate that the cartilage destruction in the joint is due to an invasive pannus which originates in the marginal synovium and extends across the articular surface to erode it. […] The most pointed reference showing the relationship between arthritis and joint deterioration is an X-Ray analysis of adjuvant arthritis in the rat by Blackham et al., Agents and Actions 7, 145 (1977). In a similar manner, inhibition of the progress of arthritis in paws of rats treated with the compounds of this invention also lessens associated joint deterioration.

[2] = test system: Migration Inhibitory Factor; assay: Migration inhibitory factor in the guinea pig (capillary tube macrophage migration assay, direct MIF assay); format: cell-based, guinea pig (male Hartley); conditions: number of tests wherein the percent reversal of inhibition =15%
Source text: Rheumatoid arthritis is a chronic inflammatory disease that is characterized by the migration of lymphocytes, macrophages and polymorphonuclear leukocytes to the sites of inflammation. The migration of lymphocytes and macrophages and their multiplication in situ is one reason for the very large increase in size of the normally thin synovial membrane, the membrane that encloses the joint space. The synovial membrane that has been transformed in this manner, slowly grows over the aricular surfaces and causes the destruction of the articular cartilage and other connective tissue structures of the joint. One of the mechanisms for the destruction of articular cartilage by the synovium is believed to be through the release of various hydrolytic enzymes by the resident macrophages which have been immobilized and activated by migration inhibitory factor (MIF). Macrophages stimulated by MIF are termed "activated macrophages" and undergo the following changes: (a) increased glucose oxidation, (b) increased ruffling of plasma membrane and increased spreading of cells, (c) synthesis and secretion of neutral proteases, (d) release of preformed lysosomal enzymes, (e) decreased migration from a capillary tube. […] Drugs that can therefore block the release of MIF by lymphocytes or the activation of macrophages by MIF should be clinically effective in retarding the destructive joint damage which occurs in rheumatoid arthritis. Drugs can be tested as MIF inhibitors by using the capillary tube migration assay as follows.
Male Hartley guinea pigs, weighing between 300 and 600 grams, are injected intraperitoneally with 25 ml Marcal 52 Oil® (Humble Oil). Three to four days later, the guinea pigs are sacrificed by decapitation, the peritoneum opened, and the exudate aspirated into a separatory funnel after the addition of 50 ml of cold Hank's solution. This is repeated two times. The oil phase is discarded and the cell supsension is spun down at 1200 r.p.m. for ten minutes. The cells are resuspended in Hank's solution and spun down at 900 r.p.m. for five minutes. This is repeated two times. Viability of the cells is then determined using trypan blue. In all experiments, viability is greater than 90%. The cell concentration is then adjusted to give a 10% packed cell volume by the addition of the appropriate amount of MEM® (Gibco 109)+15% guinea pig serum. […] To determine the area of cell migration out of the capillary tube onto the chamber surface, the chambers are projected onto a microscope screen, the area traced onto paper, and then measured using a planimeter. […]

[3] = test system: Carrageenin-Induced Edema; assay: Carrageenin-induced edema in the rat; format: in vivo, rat (Royal Hart, Wistar strain); conditions: by gavage, 5 hours after drug (4 hours after carrageenin challenge); dose not given
Procedure: In determining the acute anti-inflammatory activity of the cis-2-benzoyl-3-hydroxy-2-alkenonitriles of the present invention, Royal Hart, Wistar strain rats, ranging in weight from 80 to 90 grams were used. The rats were fasted overnight prior to dosing but had free access to water. The test compounds were administered in aqueous suspension, by gavage, in a volume of 1.7 ml. per 50 grams of rat [corresponds to hydration volume used by Winter, et al., Proc. Soc. […] The phlogistic agent used was carrageenin prepared as a sterile 1% suspension in 0.9% aqueous sodium chloride for routine testing. A volume of 0.05 ml. was injected through a 26 gauge needle into the plantar tissue of the right hind paw. Measurements were made 5 hours after drug administration (4 hours after carrageenin challenge). Volumes of both the normal and carrageenin inflammed feet were determined. The difference between the two measurements is considered to be the increased edema due to the carrageenin administration. Results are expressed as a C/T efficacy ratio (edema of control animals/edema of treated animals).

arthritic paw swelling = conditions: cited from earlier work
[4] = 336 h, once daily days 0 to 13, read-out: % Inhibition of Swelling, Day 14
[5] = 504 h, once daily days 0 to 13, read-out: % Inhibition of Swelling, Day 21

With `C/C(O)=C(\C#N)C(=O)c1cccc(Cl)c1C` [Cis-2-(3-chloro-o-toluoyl)-3-hydroxycrotononitrile] the inhibition in vivo at 50 mg/kg [1, 4] was 61%, the inhibition in vivo at 50 mg/kg [1, 5] was 17% and the “#Actives/Total Tests” value ([2]; 5×10^-5 M) was 3/5.
For `C/C(O)=C(\C#N)C(=O)c1ccccc1F` [Cis-2-(o-fluorobenzoyl)-3-hydroxycrotononitrile], the “C/T Ratio (edema of control animals/edema of treated animals)” value [3] was 2.18.
With `COc1ccc(C(=O)/C(C#N)=C(/C)O)cc1` [Cis-3-hydroxy-2-(p-methoxybenzoyl)crotononitrile] the “C/T Ratio (edema of control animals/edema of treated animals)” value [3] was 1.59.
With `C/C(O)=C(\C#N)C(=O)c1ccc(Br)cc1` [Cis-2-(p-bromobenzoyl)-3-hydroxycrotononitrile] the “#Actives/Total Tests” value ([2]; 10 μg./ml.) was 2/3.
In the case of `C/C(O)=C(\C#N)C(=O)c1ccc(F)cc1` [Cis-2-(p-fluorobenzoyl)-3-hydroxycrotononitrile], the inhibition in vivo at 25 mg/kg [1, 4] is reported as 65%, the inhibition in vivo at 25 mg/kg [1, 5] is reported as 30% and the “#Actives/Total Tests” value ([2]; 5×10^-5 M) is reported as 4/4.
In the case of `C/C(O)=C(\C#N)C(=O)c1ccc(C)cc1` [Cis-3-hydroxy-2-p-toluoylcrotononitrile, Cis-3-hydroxy-2-(p-toluoyl)crotonitrile], the “C/T Ratio (edema of control animals/edema of treated animals)” value [3] is reported as 1.41.
For `COc1ccc2c(c1)c(CC(=O)O)c(C)n2C(=O)c1ccc(Cl)cc1` [Indomethacin], the “effect on joint and bone deterioration” value (arthritic paw swelling; S. Wong et al. 1973, G. R. Bobalick et al. 1974) is given as “prevent joint and bone deterioration” and the “effect on arthritic paw swelling” value (arthritic paw swelling; literature) is given as “inhibit arthritic paw swelling”.
`C/C(O)=C(\C#N)C(=O)c1ccccc1Cl` [Cis-2-(o-chlorobenzoyl)-3-hydroxycrotononitrile] showed an inhibition in vivo at 50 mg/kg [1, 4] of 39% and an inhibition in vivo at 50 mg/kg [1, 5] of 29%.
For `CC(=O)Oc1ccccc1C(=O)O` [Aspirin, reference compound], the “C/T Ratio (edema of control animals/edema of treated animals)” value [3] was 2.86.
With `C/C(O)=C(\C#N)C(=O)c1ccc(C(F)(F)F)cc1` [Cis-3-hydroxy-2-(α,α,α-trifluoro-p-toluoyl)crontononitril] the “C/T Ratio (edema of control animals/edema of treated animals)” value [3] was 1.97, the inhibition in vivo at 25 mg/kg [1, 4] was 68% and the inhibition in vivo at 25 mg/kg [1, 5] was 5%.
For `C/C(O)=C(\C#N)C(=O)c1cccc(F)c1` [Cis-2-(m-fluorobenzoyl)-3-hydroxycrotononitrile], the “C/T Ratio (edema of control animals/edema of treated animals)” value [3] was 1.61, the inhibition in vivo at 50 mg/kg [1, 4] was 48% and the inhibition in vivo at 50 mg/kg [1, 5] was 37%.
With `COc1ccccc1C(=O)/C(C#N)=C(/C)O` [Cis-3-hydroxy-2-(o-anisoyl)crotononitrile] the “C/T Ratio (edema of control animals/edema of treated animals)” value [3] was 1.30 and the “#Actives/Total Tests” value ([2]; 5×10^-5 M) was 4/5.
With `C/C(O)=C(\C#N)C(=O)c1ccc(Cl)cc1` [Cis-2-(p-chlorobenzoyl)-3-hydroxycrotonitrile] the inhibition in vivo at 25 mg/kg [1, 4] was 58% and the inhibition in vivo at 25 mg/kg [1, 5] was 15%.
